Assay results published in patent US11077210B2, “Near-infrared fluorescent contrast bioimaging agents and methods of use thereof” (Beth Israel Deaconess Medical Center, priority 2013, dated 2021).

Key:
[1] = system: ovaries; assay: Ovary NIR fluorescence imaging (FLARE); type: in vivo; conditions: 25 g female mouse, 25 nmol intravenously, 4 hours; Channel 1 (700 nm) or Channel 2 (800 nm)
Procedure: (§1) Absorbance and fluorescence emission spectra were measured using fiber optic HR2000 absorbance (200-1100 nm) and USB2000FL fluorescence (350-1000 nm) spectrometers (Ocean Optics, Dunedin, Fla.). Excitation was provided by a 532 nm green laser pointer (Opcom Inc., Xiamen, China) set to 5 mW, a 655 nm red laser pointer (Opcom Inc., Xiamen, China) set to 5 mW, or a 770 nm NIR laser diode light source (Electro Optical Components, Santa Rosa, Calif.) set to 10 mW and coupled through a 300 μm core diameter, NA 0.22 fiber (Fiberguide Industries, Stirling, N.J.). In silico calculations of the partition coefficient (log D at pH 7.4) and surface molecular charge and hydrophobicity were calculated using MarvinSketch 5.2.1 by taking major microspecies at pH 7.4 (ChemAxon, Budapest, Hungary). NIR Fluorescence Imaging System The dual-NIR channel FLARE′ imaging system has been described in detail previously (26-28). […] Color and two independent NIR fluorescence emission images (≈700 nm for Channel 1 and ≈800 nm for Channel 2) were acquired simultaneously with custom software at rates up to 15 Hz over a 15 cm diameter field of view. NIR fluorescence from Channel 1 was pseudo-colored in red and NIR fluorescence from Channel 2 was pseudo-colored in lime green prior to merger with the color video image. […] Animal Models and Intraoperative NIR Fluorescence Imaging […]

[2] = system: adrenal; assay: Adrenal NIR fluorescence imaging (FLARE); type: in vivo; conditions: 35 kg female pig, 5 μmol intravenously, 4 hours; Channel 1 (700 nm) or Channel 2 (800 nm)
Procedure: as §1

[3] = system: parathyroid; assay: Parathyroid NIR fluorescence imaging (FLARE); type: in vivo; conditions: 35 kg female pig, 5 μmol intravenously, 4 hours; Channel 1 (700 nm) or Channel 2 (800 nm)
Procedure: as §1

[4] = system: thyroid; assay: Thyroid NIR fluorescence imaging (FLARE); type: in vivo; conditions: 35 kg female pig, 5 μmol intravenously, 4 hours; Channel 1 (700 nm) or Channel 2 (800 nm)
Procedure: as §1

[5] = system: stem cells; assay: Stem cell tracking: NIR fluorescence microscopy of labelled cells; type: cell-based; conditions: 2 μM, 30 min incubation at 37° C., fixed in 2% paraformaldehyde, 10 μm sections; fluorescence microscope Channel 1 (700 nm) or Channel 2 (800 nm)
[6] = system: choroid plexus; assay: Choroid plexus NIR fluorescence imaging (FLARE); type: in vivo; conditions: 25 g male mouse, 25 nmol intravenously, 4 hours; Channel 1 (700 nm) or Channel 2 (800 nm)
Procedure: as §1

[7] = system: bile duct; assay: Bile duct NIR fluorescence imaging (FLARE); type: in vivo; conditions: 35 kg female pig, 5 μmol intravenously, 4 hours; Channel 1 (700 nm) or Channel 2 (800 nm)
Procedure: as §1

[8] = system: thoracic duct; assay: Thoracic duct NIR fluorescence imaging (FLARE); type: in vivo; conditions: 35 kg female pig, 5 μmol subcutaneously into the lower leg, 30 minutes; Channel 1 (700 nm) or Channel 2 (800 nm)
Procedure: as §1

[9] = system: pituitary gland; assay: Pituitary gland NIR fluorescence imaging (FLARE); type: in vivo; conditions: 25 g male mouse, 25 nmol intravenously, 4 hours; Channel 1 (700 nm) or Channel 2 (800 nm)
Procedure: as §1

[10] = system: ureters; assay: Ureter NIR fluorescence imaging (FLARE); type: in vivo; conditions: 35 kg female pig, 5 μmol intravenously, waiting period 30 min, imaged over next 4 hours; Channel 1 (700 nm) or Channel 2 (800 nm)
Procedure: as §1

[11] = system: pan lymph nodes; assay: Pan lymph node NIR fluorescence imaging (FLARE); type: in vivo; conditions: 250 g male rat, 20 nmol intravenously, 4 hours; Channel 1 (700 nm) or Channel 2 (800 nm)
Procedure: as §1

[12] = system: brain grey matter; assay: Brain grey matter NIR fluorescence imaging (FLARE); type: in vivo; conditions: 25 g male mouse, 25 nmol intravenously, 4 hours; Channel 1 (700 nm) or Channel 2 (800 nm)
Procedure: as §1

[13] = system: pancreas; assay: Pancreas NIR fluorescence imaging (FLARE); type: in vivo; conditions: 35 kg female pig, 5 μmol intravenously, 4 hours; Channel 1 (700 nm) or Channel 2 (800 nm)
Procedure: as §1

[14] = system: spleen; assay: Spleen NIR fluorescence imaging (FLARE); type: in vivo; conditions: 25 g male mouse, 25 nmol intravenously, 4 hours; Channel 1 (700 nm) or Channel 2 (800 nm)
Procedure: as §1

[15] = system: CSF; assay: CSF NIR fluorescence imaging (FLARE); type: in vivo; conditions: 35 kg female pig, 5 μmol intravenously, 4 hours; Channel 1 (700 nm) or Channel 2 (800 nm)
Procedure: as §1

[16] = system: seminal vesicle; assay: Seminal vesicle NIR fluorescence imaging (FLARE); type: in vivo; conditions: 25 g male mouse, 25 nmol intravenously, 4 hours; Channel 1 (700 nm) or Channel 2 (800 nm)
Procedure: as §1

[17] = system: white adipose tissue; assay: White adipose tissue NIR fluorescence imaging (FLARE); type: in vivo; conditions: 25 g male mouse, 25 nmol intravenously, 4 hours; Channel 1 (700 nm) or Channel 2 (800 nm)
Procedure: as §1

[18] = system: brown fat; assay: Brown adipose tissue NIR fluorescence imaging (FLARE); type: in vivo; conditions: 25 g male mouse, 25 nmol intravenously, 4 hours; Channel 1 (700 nm) or Channel 2 (800 nm)
Procedure: as §1

[19] = system: gallbladder; assay: Gallbladder NIR fluorescence imaging (FLARE); type: in vivo; conditions: 25 g male mouse, 25 nmol intravenously, 4 hours; Channel 1 (700 nm) or Channel 2 (800 nm)
Procedure: as §1

[20] = system: salivary glands; assay: Salivary gland NIR fluorescence imaging (FLARE); type: in vivo; conditions: 25 g male mouse, 25 nmol intravenously, 4 hours; Channel 1 (700 nm) or Channel 2 (800 nm)
Procedure: as §1

CCCCN1/C(=C/C=C/C=C/C=C/C2=[N+](CCCC)c3ccccc3C2(C)C)C(C)(C)c2ccccc21 [AL27]
NIR fluorescence contrast of the ovaries [1]: highlighted with high contrast | NIR fluorescence contrast of the adrenal [2]: highlighted with high contrast

CN1/C(=C/C=C/C=C/C=C/C2=[N+](C)c3ccc(F)cc3C2(C)C)C(C)(C)c2cc(F)ccc21 [QBN14]
NIR fluorescence contrast of the parathyroid [3]: highlighted with high contrast | NIR fluorescence contrast of the thyroid [4]: highlighted with high contrast

CCN1/C(=C/C=C2\CCCC(/C=C/C3=[N+](CC)c4ccccc4C3(C)C)=C2Oc2ccc(CCN)cc2)C(C)(C)c2ccccc21 [PS126]
NIR fluorescence contrast of the cytoplasm of cell [5]: highlighted with high contrast

CN1/C(=C/C=C/C=C/C=C/c2sc3ccccc3[n+]2C)Sc2ccccc21 [ZK208]
NIR fluorescence contrast of the choroid plexus [6]: highlighted with high contrast

CC1(C)C(/C=C/C(Br)=C/C=C2/N(CCC[N+](C)(C)C)c3ccc(S(=O)(=O)O)cc3C2(C)C)=[N+](CCC[N+](C)(C)C)c2ccc(S(=O)(=O)O)cc21 [A106]
NIR fluorescence contrast of the bile duct [7]: highlighted with high contrast | NIR fluorescence contrast of the thoracic duct [8]: highlighted with high contrast

CCN1/C(=C/C=C/C=C/c2sc3cc(C)ccc3[n+]2CC)Sc2cc(C)ccc21 [SP60]
NIR fluorescence contrast of the pituitary gland [9]: highlighted with high contrast

CC1(C)C(/C=C/C(=C/C=C2/N(CCC[N+](C)(C)C)c3ccc(S(=O)(=O)O)cc3C2(C)C)Oc2ccc(CCC(=O)O)cc2)=[N+](CCC[N+](C)(C)C)c2ccc(S(=O)(=O)O)cc21 [LN15]
NIR fluorescence contrast of the ureter [10]: highlighted with high contrast

CC1(C)C(/C=C/C(Br)=C/C=C2/N(CCC[N+](C)(C)C)c3ccc(Br)cc3C2(C)C)=[N+](CCC[N+](C)(C)C)c2ccc(Br)cc21 [A150]
NIR fluorescence contrast of all lymph nodes [11]: highlighted with high contrast

CCCC[N+]1=C(/C=C/C=C/C=C/C=C2/N(C)c3ccccc3C2(C)C)C(C)(C)c2cc(OC)ccc21 [ZK189]
NIR fluorescence contrast of the brain grey matter [12]: highlighted with high contrast

COc1ccc2c(c1)C(C)(C)C(/C=C/C=C/C=C/C=C1/N(C)c3ccc(OC)cc3C1(C)C)=[N+]2C [AL22]
NIR fluorescence contrast of the pancreas [13]: highlighted with high contrast | NIR fluorescence contrast of the pituitary gland [9]: highlighted with high contrast

CC1(C)C(/C=C/C(Br)=C/C=C2/N(CCCc3ccccc3)c3ccc4ccccc4c3C2(C)C)=[N+](CCCc2ccccc2)c2ccc3ccccc3c21 [E24]
NIR fluorescence contrast of the spleen [14]: highlighted with high contrast

CC1(C)C(/C=C/C=C/C=C2/N(CCCc3ccccc3)c3ccc4ccccc4c3C2(C)C)=[N+](CCCc2ccccc2)c2ccc3ccccc3c21 [E16]
NIR fluorescence contrast of the adrenal [2]: highlighted with high contrast

CCN1/C(=C/C=C(/C=C/C2=[N+](CC)c3ccccc3C2(C)C)Oc2ccc(CCN)cc2)C(C)(C)c2ccccc21 [PS127]
NIR fluorescence contrast of the cytoplasm of cell [5]: highlighted with high contrast

CN(C)CCCN1/C(=C/C=C/C=C/c2sc3cc(O)ccc3[n+]2CCCN(C)C)Sc2cc(O)ccc21 [SP66]
NIR fluorescence contrast of the CSF [15]: highlighted with high contrast

CN1/C(=C/C=C/C=C/C2=[N+](C)c3ccc(F)cc3C2(C)C)C(C)(C)c2cc(F)ccc21 [T14]
NIR fluorescence contrast of the parathyroid [3]: highlighted with high contrast | NIR fluorescence contrast of the thyroid [4]: highlighted with high contrast | NIR fluorescence contrast of the pancreas [13]: highlighted with high contrast

CC1(C)C(/C=C/C2=C(NCCc3ccc(N)cc3)C(=C/C=C3/N(CCC[N+](C)(C)C)c4ccc(S(=O)(=O)O)cc4C3(C)C)/CCC2)=[N+](CCC[N+](C)(C)C)c2ccc(S(=O)(=O)O)cc21 [LN65]
NIR fluorescence contrast of the seminal vesicle [16]: highlighted with high contrast

CCN(CC)c1ccc(/C=C/C2=CC(/C=C/c3ccc(N(CC)CC)cc3)=[O+][B-](F)(F)O2)cc1 [PS31]
NIR fluorescence contrast of the white adipose tissue [17]: highlighted with high contrast

CCCCN1/C(=C/C=C/C=C/c2sc3ccccc3[n+]2CCCC)Sc2ccccc21 [SP30]
NIR fluorescence contrast of the brown fat [18]: highlighted with high contrast

CN1/C(=C/C2=CC3=C/C(=C/c4sc5cc(O)ccc5[n+]4C)CCC3CC2)Sc2cc(O)ccc21 (stereo not drawn) [ZK198]
NIR fluorescence contrast of the bile duct [7]: highlighted with high contrast | NIR fluorescence contrast of the gallbladder [19]: highlighted with high contrast | NIR fluorescence contrast of the thoracic duct [8]: highlighted with high contrast

CCN(CC)c1ccc2nc3ccc(=[N+](CC)CC)cc-3oc2c1 [WuA96]
NIR fluorescence contrast of the brain grey matter [12]: highlighted with high contrast

CN1/C(=C/C=C/C=C/c2sc3ccccc3[n+]2C)Sc2ccccc21 [SP28]
NIR fluorescence contrast of the choroid plexus [6]: highlighted with high contrast

CCCCN1/C(=C/C=C/C=C/C=C/C2=[N+](CCCC)c3ccc(Cl)cc3C2(C)C)C(C)(C)c2cc(Cl)ccc21 [AH34]
NIR fluorescence contrast of the white adipose tissue [17]: highlighted with high contrast

CC1(C)C(/C=C/C=C/C=C/C=C2/N(CCCc3ccccc3)c3ccccc3C2(C)C)=[N+](CCCc2ccccc2)c2ccccc21 [AL29]
NIR fluorescence contrast of the spleen [14]: highlighted with high contrast

CN1\C(=C/C=C/C=C/C2=[N+](C)c3cc4c(cc3C2(C)C)OCO4)C(C)(C)c2cc3c(cc21)OCO3 [NRB1]
NIR fluorescence contrast of the salivary glands [20]: highlighted with high contrast

CN1/C(=C/C=C/C=C/C=C/C2=[N+](C)c3ccc(Br)cc3C2(C)C)C(C)(C)c2cc(Br)ccc21 [QBN1]
NIR fluorescence contrast of the brown fat [18]: highlighted with high contrast

CNCCCN1/C(=C/C=C/C=C/c2sc3ccccc3[n+]2CCCNC)Sc2ccccc21 [ZK211]
NIR fluorescence contrast of the salivary glands [20]: highlighted with high contrast

CC1(C)C(/C=C/C2=C(Sc3ccc(CC(=O)O)cc3)C(=C/C=C3/N(CCC[N+](C)(C)C)c4ccc(S(=O)(=O)O)cc4C3(C)C)/CCC2)=[N+](CCC[N+](C)(C)C)c2ccc(S(=O)(=O)O)cc21 [CNN2]
NIR fluorescence contrast of the seminal vesicle [16]: highlighted with high contrast

CC1(C)C(/C=C/C2=C(c3ccc(CCC(=O)O)cc3)C(=C/C=C3/N(CCC[N+](C)(C)C)c4ccc(S(=O)(=O)O)cc4C3(C)C)/CCC2)=[N+](CCC[N+](C)(C)C)c2ccc(S(=O)(=O)O)cc21 [A71]
NIR fluorescence contrast of the ureter [10]: highlighted with high contrast
